Test results from patent US11033531B2, “Use of carbamate compound for preventing, alleviating, or treating tremors or tremor syndrome” (SK BIOPHARMACEUTICALS CO., LTD., priority 2016, dated 2021).
Marks after values point to notes of the source that are not given here.

Test system: oxotremorine-induced tremor in rats
Assay: Oxotremorine-induced tremor in rats
Type: in vivo, rat
Conditions: for Number of tremor behaviors: male SD rats, behaviors of at least 0.5 s in 2,048 s, mean±SEM
From the text: As a model for assessing the potential efficacy of therapeutic agents that can effectively treat essential tremor and other tremor syndromes, oxotremorine-induced tremor in rats was used [B Cox, D Potkonjak, Effects of drugs on tremor and increase in brain acetylcholine produced by oxotremorine in the rat, Br. J. Pharmac., 1970, 38, 171-180].
Male SD rats (CrjBgi:CD(SD)IGS) were purchased from Orient Bio, Inc. of Korea, and placed in a wire mesh cage under conditions of ambient temperature of 20 to 24° C., 55 to 75% relative humidity, an automatically controlled light-and-darkness cycle of 12 hours and free access to feed (purchased from Agri Brands Purina Korea, Inc.) and water. The rats were housed and maintained in accordance with the Laboratory Animal Care Standards of the Institutional Animal Care and Use Committee (IACUC). After about one week of stabilization, rats weighing 200 to 240 g were used in the experiment. The rats to be used for the experiment were fasted by removing the feed 16 hours before the experiment, and placed in a tremor measurement device (Tremor Monitor™, San Diego Instruments, CA) 3 hours before the experiment and adapted for 10 minutes.
The test compound was prepared by dissolving it in 30% polyethylene glycol 400 (purchased from Sigma) used as a vehicle 30-45 minutes before each experiment. The vehicle and the test compound (3, 10 and 30 mg/kg dose) were administered into the oral cavity, respectively, in a volume of 4 ml per 1 kg body weight of the rat. After 60 minutes, oxotremorine (oxotremorine sesquifumarate salt, 1-(4-[1-Pyrrolidinyl]-2-butynyl)-2-pyrrolidinone sesquifumarate; purchased from Sigma) dissolved in saline and prepared in a volume of […] or a saline were subcutaneously injected into the back of the rat neck in a volume of 2 ml per 1 kg body weight of the rat. Oxotremorine-administered rats were immediately placed in a tremor measurement device (filter frequency 12 Hz, band-width 6 Hz, filter number 2), and the number of tremor behaviors that progressed for at least 0.5 seconds in 2,048 seconds were automatically measured and recorded. The number of rats per group was 16.
All data were expressed as mean±SEM. The number of oxotremorine-induced tremor behaviors in the group treated with the test compound was expressed as % inhibition compared to the vehicle group. Statistical analysis of the number of tremor behaviors between groups was performed using one-way ANOVA (one-way analysis of variance) and Dunnett's multiple comparison test by using the GraphPad Prism ver. 4.0 program. The mean number of tremor behaviors in the vehicle/oxotremorine group was observed as 29.8±8.1, and the mean number of tremor behaviors in the vehicle/saline group was observed as 9.2±2.5.

NC(=O)O[C@@H](Cn1ncnn1)c1ccccc1Cl [Test compound]
ED50 (Rattus norvegicus, po, rats, inhibition of oxotremorine-induced tremor behaviors, read-out: Calculated Median Effective Dose (ED50)): 1.67 mg/kg | inhibition at 3 mg/kg (Rattus norvegicus, po, 3 mg/kg p.o., rats, vs vehicle/oxotremorine group, corrected for vehicle/saline group, read-out: Inhibition rate compared to negative group): 50.3% | inhibition at 10 mg/kg (Rattus norvegicus, po, 10 mg/kg p.o., rats, vs vehicle/oxotremorine group, corrected for vehicle/saline group, read-out: Inhibition rate compared to negative group): 78.7% | inhibition at 30 mg/kg (Rattus norvegicus, po, 30 mg/kg p.o., rats, vs vehicle/oxotremorine group, corrected for vehicle/saline group, read-out: Inhibition rate compared to negative group): 130% | Number of tremor behaviors (3 mg/kg p.o. 60 min before oxotremorine s.c.): 19.4 ± 3.7 | Number of tremor behaviors (10 mg/kg p.o. 60 min before oxotremorine s.c.): 13.6 ± 0.1^2) | Number of tremor behaviors (30 mg/kg p.o. 60 min before oxotremorine s.c.): 2.9 ± 0.5^1) | Pharmacological activity in the oxotremorine-induced tremor behavior model (rats, 3, 10 and 30 mg/kg p.o.): significant pharmacological activity
